Source: the NIST ThermoML archive (doi:10.1016/j.tca.2006.05.010)

Columns and labels:
[1] = molar heat capacity at constant pressure; details: 101.33 kPa, Liquid, Small sample (50 mg) DSC
[2] = 101.33 kPa, Liquid, Vibrating tube method
[3] = refractive index (Na D-line) (dimensionless); details: 101.33 kPa, Liquid, Standard Abbe refractometry
[4] = excess molar enthalpy (molar enthalpy of mixing); xn = mol fraction of the nth substance listed; details: 308.15 K, 101 kPa, Liquid, Flow calorimetry
[5] = molar heat capacity at constant pressure; xn = mol fraction of the nth substance listed; details: 308.15 K, 101 kPa, Liquid, Small sample (50 mg) DSC

CCOCCOCC [1,2-diethoxyethane]
Details | mass density, [2] [kg/m3] | molar heat capacity at constant pressure, [1] [J/K/mol] | refractive index, [3]
288.15 K | – | 254.5 | –
293.15 K | – | 255.3 | –
298.15 K | 835.11 | 257.5 | 1.3897
303.15 K | – | 257.9 | –
308.15 K | 826.026 | 258.7 | 1.3853
313.15 K | – | 259.5 | –
318.15 K | – | 261.2 | –
323.15 K | – | 262.9 | –

CCOCCOCC [1,2-diethoxyethane] + C[S+](C)[O-]
Details | excess molar enthalpy [kcal/mol] | molar heat capacity at constant pressure [J/K/mol]
[4], x2 = 0.0765 | 0.0817 | –
[4], x2 = 0.1421 | 0.127 | –
[4], x2 = 0.199 | 0.155 | –
[4], x2 = 0.2488 | 0.172 | –
[4], x2 = 0.332 | 0.192 | –
[4], x2 = 0.3986 | 0.201 | –
[4], x2 = 0.4985 | 0.213 | –
[4], x2 = 0.5698 | 0.211 | –
[4], x2 = 0.6653 | 0.2 | –
[4], x2 = 0.7489 | 0.174 | –
[4], x2 = 0.799 | 0.152 | –
[4], x2 = 0.8564 | 0.12 | –
[4], x2 = 0.8883 | 0.0949 | –
[4], x2 = 0.9227 | 0.07 | –
[4], x2 = 0.9408 | 0.0586 | –
[4], x2 = 0.9598 | 0.0382 | –
[4], x2 = 0.9795 | 0.0198 | –
[5], x2 = 0.0627 | – | 252.8
[5], x2 = 0.1317 | – | 246
[5], x2 = 0.1895 | – | 240.7
[5], x2 = 0.35 | – | 225
[5], x2 = 0.4563 | – | 214.4
[5], x2 = 0.5642 | – | 203.2
[5], x2 = 0.635 | – | 195.8
[5], x2 = 0.6718 | – | 191.9
[5], x2 = 0.7514 | – | 183.1
[5], x2 = 0.8274 | – | 174.7
[5], x2 = 0.8881 | – | 167.7
[5], x2 = 0.941 | – | 161.6

COCCOC [1,2-dimethoxyethane]
Details | mass density, [2] [kg/m3] | molar heat capacity at constant pressure, [1] [J/K/mol] | refractive index, [3]
288.15 K | – | 188.7 | –
293.15 K | – | 189 | –
298.15 K | 861.9 | 191 | 1.3781
303.15 K | – | 192.2 | –
308.15 K | 851.28 | 193.4 | 1.3726
313.15 K | – | 194.5 | –
318.15 K | – | 195.8 | –
323.15 K | – | 196.9 | –

COCCOC [1,2-dimethoxyethane] + C[S+](C)[O-]
Details | excess molar enthalpy [kcal/mol] | molar heat capacity at constant pressure [J/K/mol]
[4], x2 = 0.0577 | 0.0184 | –
[4], x2 = 0.1092 | 0.0339 | –
[4], x2 = 0.1553 | 0.0461 | –
[4], x2 = 0.1969 | 0.0552 | –
[4], x2 = 0.2689 | 0.0681 | –
[4], x2 = 0.329 | 0.0779 | –
[4], x2 = 0.4238 | 0.0863 | –
[4], x2 = 0.495 | 0.0875 | –
[4], x2 = 0.5953 | 0.087 | –
[4], x2 = 0.6882 | 0.0808 | –
[4], x2 = 0.7463 | 0.0755 | –
[4], x2 = 0.8153 | 0.0633 | –
[4], x2 = 0.8547 | 0.055 | –
[4], x2 = 0.8982 | 0.0435 | –
[4], x2 = 0.9217 | 0.0339 | –
[4], x2 = 0.9464 | 0.0251 | –
[4], x2 = 0.9725 | 0.0136 | –
[5], x2 = 0.1017 | – | 188.6
[5], x2 = 0.1471 | – | 186.5
[5], x2 = 0.2718 | – | 180.8
[5], x2 = 0.3811 | – | 175.8
[5], x2 = 0.4923 | – | 170.8
[5], x2 = 0.5507 | – | 168.3
[5], x2 = 0.5831 | – | 166.9
[5], x2 = 0.677 | – | 163.1
[5], x2 = 0.7788 | – | 159.4
[5], x2 = 0.8414 | – | 157.6
[5], x2 = 0.9315 | – | 155.5
[5], x2 = 0.9626 | – | 155

C1COCO1 [1,3-dioxolane]
Details | mass density [kg/m3] | molar heat capacity at constant pressure [J/K/mol] | refractive index
[1], 288.15 K | – | 118.8 | –
[1], 293.15 K | – | 120.3 | –
[1], 298.15 K | – | 121.7 | –
[1], 303.15 K | – | 123.3 | –
[1], 308.15 K | – | 124.4 | –
[1], 313.15 K | – | 125.3 | –
[1], 318.15 K | – | 126.8 | –
[1], 323.15 K | – | 128.1 | –
[1], 328.15 K | – | 129.5 | –
[2], 298.15 K | 1058.79 | – | –
[2], 308.15 K | 1046.4 | – | –
[3], 298.15 K | – | – | 1.3983
[3], 308.15 K | – | – | 1.3934

C1COCO1 [1,3-dioxolane] + C[S+](C)[O-]
Details | excess molar enthalpy [kcal/mol] | molar heat capacity at constant pressure [J/K/mol]
[4], x2 = 0.0394 | 0.0146 | –
[4], x2 = 0.0757 | 0.0256 | –
[4], x2 = 0.1095 | 0.0335 | –
[4], x2 = 0.1408 | 0.0409 | –
[4], x2 = 0.1974 | 0.0478 | –
[4], x2 = 0.2469 | 0.054 | –
[4], x2 = 0.3297 | 0.0598 | –
[4], x2 = 0.3959 | 0.0629 | –
[4], x2 = 0.4959 | 0.0648 | –
[4], x2 = 0.5961 | 0.0631 | –
[4], x2 = 0.663 | 0.0609 | –
[4], x2 = 0.7469 | 0.0562 | –
[4], x2 = 0.7973 | 0.0519 | –
[4], x2 = 0.8551 | 0.0428 | –
[4], x2 = 0.8872 | 0.0354 | –
[4], x2 = 0.9219 | 0.0268 | –
[4], x2 = 0.9594 | 0.0155 | –
[5], x2 = 0.0532 | – | 125.2
[5], x2 = 0.1036 | – | 126.2
[5], x2 = 0.1897 | – | 128.2
[5], x2 = 0.3044 | – | 131.3
[5], x2 = 0.3922 | – | 133.9
[5], x2 = 0.5058 | – | 137.3
[5], x2 = 0.5455 | – | 138.5
[5], x2 = 0.5936 | – | 139.9
[5], x2 = 0.7053 | – | 143.4
[5], x2 = 0.781 | – | 145.9
[5], x2 = 0.9015 | – | 150.3
[5], x2 = 0.9431 | – | 152

C1COCCO1 [1,4-dioxane]
Details | mass density [kg/m3] | molar heat capacity at constant pressure [J/K/mol] | refractive index
[1], 288.15 K | – | 146.7 | –
[1], 293.15 K | – | 150 | –
[1], 298.15 K | – | 151 | –
[1], 303.15 K | – | 152.1 | –
[1], 308.15 K | – | 153.7 | –
[1], 313.15 K | – | 155.3 | –
[1], 318.15 K | – | 156.5 | –
[1], 323.15 K | – | 158.4 | –
[1], 328.15 K | – | 160.2 | –
[1], 333.15 K | – | 160.4 | –
[2], 298.15 K | 1027.96 | – | –
[2], 308.15 K | 1016.99 | – | –
[3], 298.15 K | – | – | 1.4202
[3], 308.15 K | – | – | 1.4154
